The results in this text go back to article PMC6556873, “Rapid Covalent-Probe Discovery by Electrophile-Fragment Screening” (Journal of the American Chemical Society, 2019).

The structures appear in SMILES notation. Read-outs that look alike come from different tables or passages of the source.

The target of data set [1] is T1, BSA (Bos taurus, UniProt P02769).
T1 construct: gene ALB
On the set-up: Intact protein LC/MS covalent labelling, fragments in pools of five, 200 uM each, 4 °C. As to conditions: 24 h, 4 °C, pool of five; 200 µM; covalent. The protocol: (§1) Incubations were performed at 200 μM for each compound and 2 μM of protein (10 μM for BSA) for 24 h at 4 °C with moderate shaking. Incubation buffers varied among proteins (PBS pH 7.4 for QSOX1 and BSA; 10 mM HEPES pH 7.5, 0.3 M NaCl, 0.5 mM TCEP for PCAF, UPS8, and NUDT7; […]; 10 mM Na2HPO4 pH 7.5 100 mM NaCl 5 mM β-mercaptoethanol for NV3CP; 20 mM Na phosphate pH 7.5 for NNMT; […]. The reaction was stopped by quenching with formic acid, 0.4% final concentration. Each protein was incubated with the electrophilic library in pools of five compounds per well. The pool’s composition maximized the difference in mass between fragments in the same well. Incubations were performed with each fragment at 200 μM, for 24 h at 4 °C, to allow the screening of proteins that are not stable for long time periods at higher temperatures. Following incubation, we used intact protein [compound left out] chromatography/mass spectrometry (LC/MS) to identify the fragments and quantify their labeling (Figure 3A). […] There was good agreement between the percent of labeling of NUDT7 by 100 random individual compounds and that obtained in pools of five (R^2=0.78; Figure S6 and Data set 2 in the Supporting Information).

Data set [2] deals with T2, NUDT7 (Homo sapiens, UniProt P0C024).
T2 construct: residues 14-235, E. coli, pNIC28-Bsa4, N-terminal His6 tag removed by TEV, construct 26672 Da
Also on record: Intact protein LC/MS covalent labelling, fragments in pools of five, 200 uM each, 4 °C. The conditions noted are these: 24 h, 4 °C, pool of five; 200 µM; covalent. The protocol: as §1

Data set [3] addresses T3, OTUB2 (OTUB2A) (Homo sapiens, UniProt Q96DC9).
T3 construct: full length residues 1-234, E. coli BL21(DE3)-R3, His tag removed by TEV, construct 27312 Da
T3 sequence (Q96DC9 1-234): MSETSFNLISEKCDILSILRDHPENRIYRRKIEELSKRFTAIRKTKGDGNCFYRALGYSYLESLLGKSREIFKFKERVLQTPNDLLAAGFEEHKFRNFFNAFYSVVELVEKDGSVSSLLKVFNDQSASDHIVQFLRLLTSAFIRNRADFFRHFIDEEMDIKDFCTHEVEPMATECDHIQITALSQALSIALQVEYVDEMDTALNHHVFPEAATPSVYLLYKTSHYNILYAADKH
Also on record: Intact protein LC/MS covalent labelling, fragments in pools of five, 200 uM each, 4 °C. As to conditions: 24 h, 4 °C, pool of five; 200 µM; covalent. The protocol: as §1

Data set [4] deals with T4, PCAF (Homo sapiens, UniProt Q92831).
T4 construct: gene KAT2B
On the set-up: Intact protein LC/MS covalent labelling, fragments in pools of five, 200 uM each, 4 °C. The conditions noted are these: 24 h, 4 °C, pool of five; 200 µM; covalent. The protocol:
as §1

Data set [5] is described as follows: in vitro. As to conditions: human, hb2 cells, read-out: HB-2 Cells Viability (%). Also on record: species or system CCD841, HEK293.
A short description of data set [6]: in vitro. On the set-up: species or system HB2, HEK293. The conditions noted are these: human, ccd841 cells.
The nature of data set [7]: in vitro. On the set-up: species or system HB2, CCD841. As to conditions: human, hek293 cells.

T2 sequence (P0C024 14-235): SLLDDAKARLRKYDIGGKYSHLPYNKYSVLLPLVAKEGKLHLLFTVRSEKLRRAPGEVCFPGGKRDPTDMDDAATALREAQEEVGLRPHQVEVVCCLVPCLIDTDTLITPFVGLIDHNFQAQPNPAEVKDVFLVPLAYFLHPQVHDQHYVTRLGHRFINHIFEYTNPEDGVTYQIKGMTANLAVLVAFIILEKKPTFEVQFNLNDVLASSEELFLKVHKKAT
T1 sequence (P02769 whole entry): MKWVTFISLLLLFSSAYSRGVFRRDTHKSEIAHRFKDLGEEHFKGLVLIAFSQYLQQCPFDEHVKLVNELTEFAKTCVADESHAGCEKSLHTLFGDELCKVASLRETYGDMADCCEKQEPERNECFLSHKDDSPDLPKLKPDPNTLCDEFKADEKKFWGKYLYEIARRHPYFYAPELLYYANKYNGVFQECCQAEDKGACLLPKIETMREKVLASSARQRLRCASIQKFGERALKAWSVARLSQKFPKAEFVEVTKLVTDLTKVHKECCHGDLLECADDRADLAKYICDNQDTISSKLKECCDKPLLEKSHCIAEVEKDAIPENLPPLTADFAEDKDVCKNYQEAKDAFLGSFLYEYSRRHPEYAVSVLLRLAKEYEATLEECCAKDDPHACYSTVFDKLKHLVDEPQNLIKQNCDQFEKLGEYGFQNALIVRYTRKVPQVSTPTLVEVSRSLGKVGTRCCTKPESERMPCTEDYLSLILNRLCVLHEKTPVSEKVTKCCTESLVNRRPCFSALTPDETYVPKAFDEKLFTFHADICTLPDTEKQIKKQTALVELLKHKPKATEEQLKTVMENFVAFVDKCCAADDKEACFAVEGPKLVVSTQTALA
T4 sequence (Q92831 whole entry): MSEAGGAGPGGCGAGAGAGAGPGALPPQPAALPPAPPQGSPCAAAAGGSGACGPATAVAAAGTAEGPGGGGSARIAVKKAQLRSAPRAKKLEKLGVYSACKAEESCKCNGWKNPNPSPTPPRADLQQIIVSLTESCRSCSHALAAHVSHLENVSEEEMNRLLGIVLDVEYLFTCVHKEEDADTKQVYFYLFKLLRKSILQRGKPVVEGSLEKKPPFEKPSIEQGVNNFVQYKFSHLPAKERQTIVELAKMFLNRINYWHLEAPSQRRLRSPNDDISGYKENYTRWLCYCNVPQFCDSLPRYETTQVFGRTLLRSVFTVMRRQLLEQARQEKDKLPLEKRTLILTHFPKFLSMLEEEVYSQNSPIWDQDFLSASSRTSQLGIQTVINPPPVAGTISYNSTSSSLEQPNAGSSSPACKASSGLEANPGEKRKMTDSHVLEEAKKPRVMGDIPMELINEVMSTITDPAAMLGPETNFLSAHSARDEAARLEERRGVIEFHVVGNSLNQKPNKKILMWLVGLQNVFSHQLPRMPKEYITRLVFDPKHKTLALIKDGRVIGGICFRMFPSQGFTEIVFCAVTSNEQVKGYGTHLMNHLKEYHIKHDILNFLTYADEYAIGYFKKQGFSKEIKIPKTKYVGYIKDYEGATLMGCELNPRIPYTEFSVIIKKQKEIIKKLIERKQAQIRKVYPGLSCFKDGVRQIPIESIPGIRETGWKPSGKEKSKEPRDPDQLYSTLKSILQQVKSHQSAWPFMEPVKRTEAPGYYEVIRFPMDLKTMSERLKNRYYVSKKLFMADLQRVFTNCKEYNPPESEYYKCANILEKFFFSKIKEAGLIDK

By viability is commonly meant a read-out of living cells in per cent, often relative to untreated cells. In turn, `Cn1cccc1C(=O)NC(=O)CCl` [PCM-0102863] returned a BSA in data set [1] of 0.2. Besides, the NUDT7 in data set [2] turned out to be 0. In addition, the OTUB2 in data set [3] is reported as 0. The same molecule came in with a PCAF in data set [4] of 0. In addition, the viability at 48 h, 10 µM in data set [5] amounted to 106%; in data set [6], 112%; in data set [7], 92.2%.
In data set [1], `O=C1CN(C(=O)CCl)c2ccc(C(F)(F)F)cc2N1` [PCM-0102289] returned a BSA of 0. Also, the NUDT7 in data set [2] is on record as 0. In data set [3], this molecule gave an OTUB2 of 0. Also, the PCAF in data set [4] stood at 0. The viability at 48 h, 10 µM is 89.3% in data set [5], 96.4% in data set [6] and 94.7% in data set [7].
In the case of `C=CC(=O)NC1CCN(C(=O)NCC)C1` (centres unmarked) [PCM-0103058], the BSA in data set [1] came to 0. In data set [2], the NUDT7 was 0. In data set [3], this molecule gave an OTUB2 of 0. The PCAF in data set [4] worked out at 0. Moreover, the values for the viability at 48 h, 10 µM in data set [5], in data set [6] and in data set [7] were 94.4%, 93.3% and 109%, respectively.
In turn, `O=C(CCl)Nc1ccc(Cl)cc1Cl` [PCM-0102914] registered a BSA in data set [1] of 0. For the same molecule, the NUDT7 in data set [2] is given as 0.22. Besides, the OTUB2 in data set [3] is listed as 0.14. Moreover, the PCAF in data set [4] was 0. The viability at 48 h, 10 µM is 52.5% in data set [5], 82.7% in data set [6] and 38.3% in data set [7].
The molecule `C=CC(=O)Nc1ccccc1F` [PCM-0102856] had a BSA in data set [1] of 0. This molecule also had an NUDT7 in data set [2] of 0. In addition, the OTUB2 in data set [3] is given as 0. Besides, in data set [4], the PCAF is reported as 0. Further, the viability at 48 h, 10 µM came to 106% in data set [5], 119% in data set [6] and 84% in data set [7].
In turn, `Cn1nc(-c2ccc(Cl)cc2)cc1NC(=O)CCl` [PCM-0102296] returned a BSA in data set [1] of 0. In data set [2], this molecule gave an NUDT7 of 0.54. In data set [3], the OTUB2 is 0.38. The same molecule showed a PCAF in data set [4] of 0. In addition, the viability at 48 h, 10 µM stood at 1.6% in data set [5], 4.5% in data set [6] and 0.5% in data set [7].
In the case of `C=CC(=O)N1CCOC2(CCc3ccccc32)C1` (centres unmarked) [PCM-0102439], the BSA in data set [1] is 0. Moreover, in data set [2], the NUDT7 was determined as 0. The same molecule gave an OTUB2 in data set [3] of 0. In data set [4], this molecule came in with a PCAF of 0. The viability at 48 h, 10 µM in data set [5] was 99.3%; in data set [6], 105%; in data set [7], 92.3%.
For the molecule `O=C(CCl)Nc1cc2[nH]c(=O)[nH]c2cc1Br` [PCM-0102388], the BSA in data set [1] is recorded as 0. Further, the NUDT7 in data set [2] is listed as 0. Moreover, in data set [3], the OTUB2 is 0.56. The molecule further yielded a PCAF in data set [4] of 0. The viability at 48 h, 10 µM in data set [5] was determined as 11.4%; in data set [6] it was 38.6%; in data set [7], 1.2%.
Consider `Cc1noc(NC(=O)CCl)n1` [PCM-0102351], for which the BSA in data set [1] is 0. Also, the NUDT7 in data set [2] is reported as 0. The molecule further displayed an OTUB2 in data set [3] of 0. For the same molecule, in data set [4], the PCAF was found to be 0. For the same molecule, the viability at 48 h, 10 µM in data set [5] was determined as 103%; in data set [6] it was 94.9%; in data set [7] it was 119%.
Molecule `C=CC(=O)Nc1ccc(C)cn1` [PCM-0102627] came in with a BSA in data set [1] of 0. Besides, the NUDT7 in data set [2] is 0. In data set [3], this molecule showed an OTUB2 of 0. In addition, the PCAF in data set [4] amounted to 0. Further, the viability at 48 h, 10 µM in data set [5] worked out at 96.7%; in data set [6] it was 84.1%; in data set [7], 78.8%.
For `O=C(CCl)NCC(=O)N1CCCC1` [PCM-0102391], in data set [1], the BSA was 0. This molecule displayed an NUDT7 in data set [2] of 0. The OTUB2 in data set [3] is on record as 0. The PCAF in data set [4] is 0. Besides, the viability at 48 h, 10 µM in data set [5] was determined as 106%; in data set [6], 101%; in data set [7] it was 116%.
In data set [1], `CCCNC(=O)NC(=O)CCl` [PCM-0102702] showed a BSA of 0. This molecule also displayed an NUDT7 in data set [2] of 0. For the same molecule, the OTUB2 in data set [3] came to 0.22. Besides, the PCAF in data set [4] turned out to be 0. Further, the viability at 48 h, 10 µM in data set [5] turned out to be 91.6%; in data set [6] it was 91.6%; in data set [7], 82.9%.
Consider `CC12CCC(CC1=NNC(=O)CCl)C2(C)C` (centres unmarked) [PCM-0102498], for which the BSA in data set [1] worked out at 0. In data set [2], this molecule yielded an NUDT7 of 0. The molecule also gave an OTUB2 in data set [3] of 0. Further, the PCAF in data set [4] stood at 0. The viability at 48 h, 10 µM stood at 25.9% in data set [5], 14.6% in data set [6] and 2.2% in data set [7].
`CC(=O)Nc1ccc(NC(=O)CCl)c(C(F)(F)F)c1` [PCM-0102895] had a BSA in data set [1] of 0. In data set [2], this molecule yielded an NUDT7 of 0. The OTUB2 in data set [3] came to 0. Moreover, the PCAF in data set [4] worked out at 0. For the same molecule, the viability at 48 h, 10 µM came to 97.1% in data set [5], 91.7% in data set [6] and 82% in data set [7].
`CC1CCc2c(sc(NC(=O)CCl)c2C(N)=O)C1` (centres unmarked) [PCM-0103029] came in with a BSA in data set [1] of 0. In data set [2], this molecule gave an NUDT7 of 0.09. For the same molecule, the OTUB2 in data set [3] was determined as 0. In addition, the PCAF in data set [4] was 0. Also, the figures for the viability at 48 h, 10 µM in data set [5], in data set [6] and in data set [7] were 21%, 63.2% and 18.6%, respectively.
The molecule `Cc1cc(S(N)(=O)=O)cc(NC(=O)CCl)c1C` [PCM-0102165] returned a BSA in data set [1] of 0. For the same molecule, the NUDT7 in data set [2] is given as 0.09. This molecule also registered an OTUB2 in data set [3] of 0.12. The molecule also returned a PCAF in data set [4] of 0. For the same molecule, the values for the viability at 48 h, 10 µM in data set [5], in data set [6] and in data set [7] were 34.5%, 61.3% and 8.3%, respectively.
As for `C=CC(=O)Nc1cc(-c2ccnn2C)ccc1C` [PCM-0102543], the BSA in data set [1] turned out to be 0. The NUDT7 in data set [2] came out at 0. The molecule further registered an OTUB2 in data set [3] of 0. Besides, the PCAF in data set [4] is 0. For the same molecule, the viability at 48 h, 10 µM amounted to 103% in data set [5], 134% in data set [6] and 93.5% in data set [7].
As for `CC(c1ccc(F)cc1)N(C)C(=O)CCl` (centres unmarked) [PCM-0102783], in data set [1], the BSA is given as 0. Besides, the NUDT7 in data set [2] is recorded as 0.19. In data set [3], this molecule came in with an OTUB2 of 0. For the same molecule, the PCAF in data set [4] was determined as 0. For the same molecule, the viability at 48 h, 10 µM in data set [5] was 47.3%; in data set [6], 47.8%; in data set [7] it was 30.3%.
For the molecule `O=C(CCl)N(CC(F)(F)F)c1ccc(Cl)cc1` [PCM-0102155], the BSA in data set [1] turned out to be 0. In data set [2], this molecule came in with an NUDT7 of 0.79. The OTUB2 in data set [3] was found to be 0. The PCAF in data set [4] amounted to 0. Further, the figures for the viability at 48 h, 10 µM in data set [5], in data set [6] and in data set [7] were 11.2%, 3.5% and 4.3%, respectively.
As for `CN(Cc1ccccc1Br)C(=O)CCl` [PCM-0102592], the BSA in data set [1] came to 0. In data set [2], this molecule showed an NUDT7 of 0.14. The molecule also returned an OTUB2 in data set [3] of 0.12. Also, the PCAF in data set [4] is on record as 0. Moreover, the viability at 48 h, 10 µM was 27.4% in data set [5], 71.9% in data set [6] and 39% in data set [7].
In data set [2], `O=C(Nc1ccccc1)NN(C(=O)CCl)c1ccccc1` [PCM-0102957] registered an NUDT7 of 1. In addition, in data set [3], the OTUB2 came to 0. Also, the PCAF in data set [4] stood at 0. Further, the viability at 48 h, 10 µM in data set [5] stood at 3.7%; in data set [6] it was 1.1%; in data set [7], 0.8%.
Molecule `O=C(CCl)Nc1nc2ccc(Br)cc2s1` [PCM-0102126] registered an NUDT7 in data set [2] of 1. In data set [3], the OTUB2 worked out at 0.12. The molecule further came in with a PCAF in data set [4] of 0. Further, the viability at 48 h, 10 µM in data set [5] was found to be 83.6%; in data set [6] it was 92.7%; in data set [7], 92.5%.
